Results: paper PMC4579270, “Identification and Characterization of an Irreversible Inhibitor of CDK2” (Chemistry & Biology, 2015)
Read-outs that look alike come from different tables or passages of the source.

What was measured:
Test in all cases: Dundee kinase screen re-test (standard format and 4 hour pre-incubation)
Assay type in all cases: biochemical
IRR = IRR (Homo sapiens, UniProt P14616)
In short: (§1)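 Selectivity panel of 131 protein kinases, inhibitor tested at a single concentration of 1 µM; values are % kinase activity remaining, mean of duplicates. Re-test of selected kinases used 0.5 µM in the standard format and again after a 4 hour pre-incubation with the inhibitor.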

ASK1 = target: T1, ASK1 (Homo sapiens, UniProt Q99683); conditions: ASK1, 0.5µM
T1 sequence (Q99683 1-1374): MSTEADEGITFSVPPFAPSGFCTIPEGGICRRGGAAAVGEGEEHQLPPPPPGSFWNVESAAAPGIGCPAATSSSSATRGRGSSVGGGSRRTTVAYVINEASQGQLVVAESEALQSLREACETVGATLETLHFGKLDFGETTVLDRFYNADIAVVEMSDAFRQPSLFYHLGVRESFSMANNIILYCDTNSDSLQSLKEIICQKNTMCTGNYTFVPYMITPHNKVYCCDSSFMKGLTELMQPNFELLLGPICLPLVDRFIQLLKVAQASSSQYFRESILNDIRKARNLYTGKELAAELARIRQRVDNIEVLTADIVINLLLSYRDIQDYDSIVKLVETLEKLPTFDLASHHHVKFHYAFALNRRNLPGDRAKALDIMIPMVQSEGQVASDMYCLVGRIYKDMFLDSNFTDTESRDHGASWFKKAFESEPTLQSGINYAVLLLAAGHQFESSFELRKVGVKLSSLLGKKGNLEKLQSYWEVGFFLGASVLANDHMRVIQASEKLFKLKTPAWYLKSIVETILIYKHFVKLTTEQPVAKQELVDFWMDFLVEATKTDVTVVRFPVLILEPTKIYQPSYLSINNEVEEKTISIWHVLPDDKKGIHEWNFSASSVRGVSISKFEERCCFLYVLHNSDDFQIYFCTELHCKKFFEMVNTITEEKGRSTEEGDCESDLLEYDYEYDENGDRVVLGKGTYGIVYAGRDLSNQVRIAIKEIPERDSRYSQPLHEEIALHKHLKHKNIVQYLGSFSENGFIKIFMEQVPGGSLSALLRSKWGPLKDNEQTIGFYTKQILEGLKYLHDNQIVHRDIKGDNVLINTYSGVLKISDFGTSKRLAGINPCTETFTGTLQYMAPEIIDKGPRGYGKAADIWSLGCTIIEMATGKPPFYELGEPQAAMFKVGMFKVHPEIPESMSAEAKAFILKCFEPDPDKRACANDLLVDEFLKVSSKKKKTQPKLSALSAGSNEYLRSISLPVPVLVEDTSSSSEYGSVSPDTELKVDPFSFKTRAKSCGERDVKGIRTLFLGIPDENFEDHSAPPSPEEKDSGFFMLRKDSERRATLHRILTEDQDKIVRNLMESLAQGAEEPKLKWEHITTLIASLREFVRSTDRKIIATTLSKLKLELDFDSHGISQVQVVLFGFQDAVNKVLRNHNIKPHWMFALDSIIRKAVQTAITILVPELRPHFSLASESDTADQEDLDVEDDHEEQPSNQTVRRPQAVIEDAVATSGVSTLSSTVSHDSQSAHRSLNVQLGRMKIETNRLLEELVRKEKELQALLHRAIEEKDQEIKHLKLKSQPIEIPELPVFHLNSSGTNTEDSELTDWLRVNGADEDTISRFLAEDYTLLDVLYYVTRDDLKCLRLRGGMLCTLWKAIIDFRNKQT
In short: as §1

TAO1 = target: T2, TAO1 (Homo sapiens, UniProt Q7L7X3); conditions: TAO1, 0.5µM
T2 sequence (Q7L7X3 1-1001): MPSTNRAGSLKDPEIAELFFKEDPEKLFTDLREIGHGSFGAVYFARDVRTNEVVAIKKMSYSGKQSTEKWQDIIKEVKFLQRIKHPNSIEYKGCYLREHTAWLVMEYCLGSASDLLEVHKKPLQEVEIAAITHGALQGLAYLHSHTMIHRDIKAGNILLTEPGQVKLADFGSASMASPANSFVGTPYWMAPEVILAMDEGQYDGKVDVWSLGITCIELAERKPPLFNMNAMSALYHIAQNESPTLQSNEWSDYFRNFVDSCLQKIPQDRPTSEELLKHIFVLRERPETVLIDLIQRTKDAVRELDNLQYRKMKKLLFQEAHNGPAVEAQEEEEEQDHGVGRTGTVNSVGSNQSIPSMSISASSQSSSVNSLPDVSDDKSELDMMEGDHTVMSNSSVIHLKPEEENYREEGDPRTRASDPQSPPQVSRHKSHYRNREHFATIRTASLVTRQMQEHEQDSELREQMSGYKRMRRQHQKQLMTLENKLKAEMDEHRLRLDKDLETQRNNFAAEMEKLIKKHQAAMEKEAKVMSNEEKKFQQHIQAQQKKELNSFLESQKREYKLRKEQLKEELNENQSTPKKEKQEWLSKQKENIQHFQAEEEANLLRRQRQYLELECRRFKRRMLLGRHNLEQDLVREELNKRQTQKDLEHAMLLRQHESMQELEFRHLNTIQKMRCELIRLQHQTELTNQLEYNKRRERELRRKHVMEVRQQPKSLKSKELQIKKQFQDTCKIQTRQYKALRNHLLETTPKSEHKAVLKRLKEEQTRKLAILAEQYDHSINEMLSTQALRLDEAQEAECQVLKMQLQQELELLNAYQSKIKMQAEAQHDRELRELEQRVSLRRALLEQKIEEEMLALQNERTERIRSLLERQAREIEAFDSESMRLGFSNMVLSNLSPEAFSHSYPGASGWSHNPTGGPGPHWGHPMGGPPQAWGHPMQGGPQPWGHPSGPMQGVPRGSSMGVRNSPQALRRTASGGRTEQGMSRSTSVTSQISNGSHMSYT
In short: as §1

[1] = 4hr RT preincubation, read-out: %Remaining activity at 0.5µM NU6300 - 4hr RT preincubation
[2] = usual format, read-out: %Remaining activity at 0.5µM NU6300 - Usual assay format

Sequence of IRR (P14616 27-1297): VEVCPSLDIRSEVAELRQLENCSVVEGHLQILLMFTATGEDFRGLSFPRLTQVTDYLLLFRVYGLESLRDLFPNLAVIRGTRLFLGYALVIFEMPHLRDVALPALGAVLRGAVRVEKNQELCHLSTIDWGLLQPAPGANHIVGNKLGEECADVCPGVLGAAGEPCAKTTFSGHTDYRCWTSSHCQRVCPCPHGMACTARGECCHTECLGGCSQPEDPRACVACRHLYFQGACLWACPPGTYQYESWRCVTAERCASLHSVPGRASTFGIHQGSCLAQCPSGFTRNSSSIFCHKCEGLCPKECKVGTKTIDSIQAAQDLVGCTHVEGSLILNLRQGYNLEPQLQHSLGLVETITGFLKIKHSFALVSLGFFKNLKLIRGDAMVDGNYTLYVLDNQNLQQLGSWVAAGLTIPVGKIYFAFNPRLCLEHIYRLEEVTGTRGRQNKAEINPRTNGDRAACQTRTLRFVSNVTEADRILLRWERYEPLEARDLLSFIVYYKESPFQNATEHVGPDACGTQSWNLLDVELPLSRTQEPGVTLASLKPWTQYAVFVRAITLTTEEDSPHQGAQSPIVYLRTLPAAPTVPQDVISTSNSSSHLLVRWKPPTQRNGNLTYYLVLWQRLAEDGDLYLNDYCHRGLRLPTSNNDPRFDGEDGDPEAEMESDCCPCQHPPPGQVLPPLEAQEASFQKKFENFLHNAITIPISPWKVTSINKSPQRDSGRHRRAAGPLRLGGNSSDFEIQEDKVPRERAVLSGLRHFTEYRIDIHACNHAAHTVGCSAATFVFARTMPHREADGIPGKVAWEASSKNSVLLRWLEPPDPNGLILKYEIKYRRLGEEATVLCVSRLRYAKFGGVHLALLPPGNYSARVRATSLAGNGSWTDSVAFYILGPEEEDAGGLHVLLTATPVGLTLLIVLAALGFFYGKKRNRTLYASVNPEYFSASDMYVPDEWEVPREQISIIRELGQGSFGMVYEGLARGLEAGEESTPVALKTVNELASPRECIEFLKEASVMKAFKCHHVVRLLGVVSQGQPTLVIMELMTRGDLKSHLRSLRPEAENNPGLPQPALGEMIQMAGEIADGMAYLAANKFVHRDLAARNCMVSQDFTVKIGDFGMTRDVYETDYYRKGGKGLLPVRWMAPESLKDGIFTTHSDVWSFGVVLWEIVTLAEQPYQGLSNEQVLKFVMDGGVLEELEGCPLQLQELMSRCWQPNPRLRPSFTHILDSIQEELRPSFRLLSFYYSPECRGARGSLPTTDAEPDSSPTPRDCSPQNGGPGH

SMILES: C=CS(=O)(=O)c1ccc(Nc2nc(OCC3CCCCC3)c3nc[nH]c3n2)cc1 [NU6300, 6-(cyclohexylmethoxy)-N-(4-(vinylsulfonyl)phenyl)-9H-purin-2-amine]
- remaining activity at 0.5 µM (IRR; [1]): 45%
- remaining activity at 0.5 µM (IRR; [2]): 73%
- remaining activity at 0.5 µM (ASK1; [1]): 102%
- remaining activity at 0.5 µM (ASK1; [2]): 89%
- remaining activity at 0.5 µM (TAO1; [1]): 20%
- remaining activity at 0.5 µM (TAO1; [2]): 27%
